The values that follow come from patent US20090239877A1, “NOVEL 1,2,4-TRIAZOLE DERIVATIVES AND PROCESS OF MANUFACTURING THEREOF” (AETERNA ZENTARIS GmbH, priority 2008, published 2009).

The term IC50 denotes the concentration that gives 50% inhibition. The low end stands for inhibition by little substance, the high end for a need for much substance. A word on the EC50: it is the concentration giving half of the maximal effect.

Assay [1] concerns the target T1, human GHS-R 1a (Homo sapiens, UniProt Q92847). Put plainly: GHS-R 1a receptor-ligand binding assay (membrane preparations from transfected LLC PK-1 cells). More on the design: expressed in transfected cells. As to conditions: displacement of 125I-His9-ghrelin; plasma membranes of LLC PK-1 cells transiently transfected with human GHS-R 1a; mean of at least two independent experiments in triplicates. Here is the method: II) GHS-R 1a Receptor-Ligand Binding Assay (Membrane Preparations from Transfected LLC PK-1 Cells)
The GHS-R 1a receptor binding/affinity studies were performed according to Guerlavais et al. (J. Med. Chem. 2003, 46: 1191-1203).
Isolated plasma membranes from LLC PK-1 cells, a renal epithelial cell line originally derived from porcine kidneys (ECACC No. 86121112) (10 μg of protein), that were transiently transfected with human GHS-R 1a cDNA (Guerlavais et al., J. Med. Chem. 2003, 46: 1191-1203), were incubated in homogenization buffer HB [50 mM Tris (pH 7.3), 5 mM MgCl2, 2.5 mM EDTA, and 30 μg/mL bacitracin (Sigma)] for 60 min at 25° C. (steady-state conditions) with […] ^125I-His^9-ghrelin (Amersham) in the presence or absence of competing compounds (compounds of the invention).
Nonspecific binding was defined using an excess (10^−6 M) of ghrelin. The binding reaction was stopped by addition of 4 mL of ice-cold HB followed by rapid filtration over Whatman GP/C filters presoaked with 0.5% polyethyleneimine to prevent excessive binding of radioligand to the filters. Filters were rinsed three times with 3 mL of icecold wash buffer [50 mM Tris (pH 7.3), 10 mM MgCl2, 2.5 mM EDTA, and 0.015% (w/v) X-100 Triton], and the radioactivity bound to membranes was measured in a gammacounter (Kontron Analytical Gamma Matic, Automatic gamma counting system).
The concentration of test compounds required to inhibit radiolabelled ghrelin binding by 50% (IC50) was determined by fitting competitive binding curves using non-linear regression (PRISM 3.0, Graph Pad San Diego, USA).
In the following table 2 results obtained for selected compounds of the invention are presented in comparison to an example of the prior art. IC50 values given are the mean of at least two independent experiments performed in triplicates.
(Loss of bound radioactivity is the signal in a displacement assay; it reports binding, not function.)

Assay [2] has as its target T1, human GHS-R 1a. Put plainly: In vitro intracellular calcium release assay using human GHS-R 1a transfected CHO cells. It counts as cell-based. Set-up: expressed in transfected cells; host or cells: CHO-K1 Chinese hamster ovary cells (ATCC No. CCL-61), transient transfection by electroporation. The following applies: for activation at 1 µM: intracellular calcium release, compound at 10^-6 M, relative to basal level (0%) and 1 μM ghrelin (100%); for EC50: agonists, dose-response curve of intracellular calcium release. The protocol: The ability to properly activate the receptors is assessed for any compound of the invention by comparing the degree of activation (increase of intracellular calcium) of GHS-R 1a by the compound to be tested (at 10^−6 M concentration) to the degree of activation (increase of intracellular calcium) of GHS-R 1a by 10^−6 M ghrelin (100%) and to the basal level (0%). Such assessment can be readily performed by the skilled artisan due to his expert knowledge. The output is a percentage value for each compound to be tested. […]
III) In Vitro Intracellular Calcium Release Assay Using Human GHS-R 1a Transfected CHO Cells
The potential of the compounds of the invention to modulate GHS receptor activity was assessed by an in vitro intracellular Calcium release assay employing CHO cells that were transfected with human GHS-R 1a.
Release of intracellular calcium or inhibition thereof was measured using the fluorescent calcium indicator assay (FLIPR) and Fluo-4 AM.
CHO cells (CHO-KI Chinese Hamster Ovary cell line, ATCC No. CCL-61) were transiently transfected with human GHS-R 1a cDNA by electroporation and plated into 96-well black bottom plates (Corning 3603) (80,000 cells/well). Transient transfections were performed using the Easyject Optima Electroporator (Equibio), according to the manufacturer's instructions.
Transfected cells were grown in Dulbecco's modified Eagle's medium without phenol red, supplemented with 10% (v/v) non-essential amino acids, […] glutamine and streptomycin-penicillin (250 μg/ml-250 u/ml) (all purchased from Cambrex) at 37° C., 5% CO2 in a humidified atmosphere for 24 hours.
After incubation, transfected cells were washed with 150 μl Buffer A [Hanks' balanced salt solution (Sigma H-6648), 0.5% (v/v) BSA (Sigma A-7906), 20 mM CaCl2, 2.5 mM probenecid (pH 7.4, dissolved in 1 M NaOH) (Sigma P-8761)] and were then loaded with fluorescent calcium indicator Fluo-4 AM (10^−6 M) (Interchim UP72972) prepared in Buffer A, additionally containing 0.06% pluronic acid (Molecular probes P-6867) (a […] detergent which facilitates Fluo-4AM ester loading). (Loading: 100 μl per well of Buffer A containing 120 μl/ml Pluronic Acid and 1 μM Fluo-4AM was added to the cells).
After loading with Fluo-4 AM, transfected cells were incubated for 1 hour in the dark at 37° C.
Compounds to be tested were dissolved in Buffer A in triplicates at a concentration of 10^−6 M and distributed into another 96-well plate (Fisher Labosi A1210500).
Following incubation, excess Fluo-4AM was removed, 100 μl of Buffer A was added to each well at room temperature and immediately removed by aspiration. This was then repeated, before adding 50 μl Buffer A to each well.
Transfected cells were further incubated room temperature for 30 min to allow complete de-esterification of intracellular Fluo-4AM esters.
Subsequently, both plates, the black-bottom plate containing transfected cells and the microtiter plate containing the compounds to be tested, were then placed into a temperature-regulated (25° C.) FlexStation machine (benchtop scanning fluorometer Flex Station II, Molecular Devices, Sunnyvale, Calif., USA) for fluorescence output measurements.
Basal fluorescence output from the transfected cells was measured for 15 sec and then 50 μl of the compounds to be tested were automatically distributed into the wells containing the transfected cells. The fluorescence output was then recorded for a further 45 sec.
Excitation and emission wavelengths were 485 nm and 525 nm, respectively. Basal fluorescence intensity of Fluo-4AM-loaded transfected cells without compounds to be tested varied between 800-1200 arbitrary units, whereas maximal fluorescence output of dye-loaded transfected cells upon incubation with the compounds to be tested varied between 5000-7000 arbitrary units and was equivalent to that achieved by stimulation of dye-loaded transfected cells with 10^−6 M ghrelin. […]
(A change in cytosolic calcium serves as a functional read-out for many receptors and channels.)

T1 sequence (Q92847 whole entry): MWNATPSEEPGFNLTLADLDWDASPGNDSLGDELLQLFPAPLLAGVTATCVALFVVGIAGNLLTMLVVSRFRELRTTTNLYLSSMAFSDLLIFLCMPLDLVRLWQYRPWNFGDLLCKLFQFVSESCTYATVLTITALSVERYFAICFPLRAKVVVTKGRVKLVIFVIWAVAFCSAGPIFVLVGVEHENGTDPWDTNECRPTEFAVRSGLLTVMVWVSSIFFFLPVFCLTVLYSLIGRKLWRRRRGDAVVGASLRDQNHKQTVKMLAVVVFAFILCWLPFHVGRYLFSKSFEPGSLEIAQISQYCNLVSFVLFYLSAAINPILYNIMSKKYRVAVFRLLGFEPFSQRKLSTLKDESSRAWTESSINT

Turning to `O=C(N[C@H](Cc1c[nH]c2ccccc12)c1nnc(CCc2c[nH]c3ccccc23)n1Cc1cccc2ccccc12)c1cnccn1` [Compound 32, N-((R)-1-(5-(2-(1H-indol-3-yl)ethyl)-4-((naphthalen-1-yl)methyl)-4H-1,2,4-triazol-3-yl)-2-(1H-indol-3-yl)ethyl)pyrazine-2-carboxamide], at human GHS-R 1a [1], the concentration for half-maximal inhibition (IC50) was 122 nM. Also, the activation at 1 µM on human GHS-R 1a [2] was determined as 0%.
With `COc1ccc(Cn2c(CCc3ccccc3)nnc2[C@@H](Cc2c[nH]c3ccccc23)NC(=O)C2(N)CCNCC2)c(OC)c1` [Compound 10, N-((R)-1-(4-(2,4-dimethoxybenzyl)-5-phenethyl-4H-1,2,4-triazol-3-yl)-2-(1H-indol-3-yl)ethyl)-4-aminopiperidine-4-carboxamide], on human GHS-R 1a [1], the concentration for half-maximal inhibition (IC50) came to 1.3 nM. For the same molecule, on human GHS-R 1a [2], the EC50 came out at 2 nM and the activation at 1 µM stood at 100%.
For `COc1ccc(Cn2c(CCc3ccccc3)nnc2[C@@H](Cc2c[nH]c3ccccc23)NC(=O)c2ccccc2)c(OC)c1` [Compound 5, N-((R)-1-(4-(2,4-dimethoxybenzyl)-5-phenethyl-4H-1,2,4-triazol-3-yl)-2-(1H-indol-3-yl)ethyl)benzamide], in that order: 11.8 nM, 16 nM and 31%.
For `COc1ccc(Cn2c(CCc3c[nH]c4ccccc34)nnc2[C@@H](Cc2c[nH]c3ccccc23)NC(=O)c2cccc(CN)c2)cc1` [Compound 13, N-((R)-1-(5-(2-(1H-indol-3-yl)ethyl)-4-(4-methoxybenzyl)-4H-1,2,4-triazol-3-yl)-2-(1H-indol-3-yl)ethyl)-3-(amino-methyl)benzamide] the same measures were 11.1 nM, 2.5 nM and 70%.
The molecule `COc1cccc(Cn2c(CCCc3ccccc3)nnc2[C@@H](Cc2c[nH]c3ccccc23)NC(=O)C(C)(C)N)c1` [Compound 1, N-((R)-1-(4-(3-methoxybenzyl)-5-(3-phenylpropyl)-4H-1,2,4-triazol-3-yl)-2-(1H-indol-3-yl)ethyl)-2-amino-2-methylpropanamide] came in with an IC50 at human GHS-R 1a [1] of 380 nM. Further, the activation at 1 µM at human GHS-R 1a [2] was 47%.
`O=C(N[C@H](Cc1c[nH]c2ccccc12)c1nnc(CCc2c[nH]c3ccccc23)n1Cc1cccc2ccccc12)C1CCNCC1` [Compound 17, N-((R)-1-(5-(2-(1H-indol-3-yl)ethyl)-4-((naphthalen-1-yl)methyl)-4H-1,2,4-triazol-3-yl)-2-(1H-indol-3-yl)ethyl)piperidine-4-carboxamide]: the half-inhibitory concentration (IC50) at human GHS-R 1a [1] worked out at 4 nM. On human GHS-R 1a [2], the 50% effective concentration (EC50) worked out at 2.4 nM and the activation at 1 µM turned out to be 94%.
For `O=C(N[C@H](Cc1c[nH]c2ccccc12)c1nnc(CCc2c[nH]c3ccccc23)n1Cc1cccc2ccccc12)C1CCOCC1` [Compound 20, N-((R)-1-(5-(2-(1H-indol-3-yl)ethyl)-4-((naphthalen-1-yl)methyl)-4H-1,2,4-triazol-3-yl)-2-(1H-indol-3-yl)ethyl)-tetrahydro-2H-pyran-4-carboxamide], in that order: 180 nM, 0.6 nM and 80%.
In the case of `O=C(N[C@H](Cc1c[nH]c2ccccc12)c1nnc(CCc2c[nH]c3ccccc23)n1Cc1cccc2ccccc12)[C@@H]1CCCN1` [Compound 31, (2S)-N-((R)-1-(5-(2-(1H-indol-3-yl)ethyl)-4-((naphthalen-1-yl)methyl)-4H-1,2,4-triazol-3-yl)-2-(1H-indol-3-yl)ethyl)pyrrolidine-2-carboxamide], on human GHS-R 1a [1], the half-maximal inhibitory concentration (IC50) is 505 nM. In addition, at human GHS-R 1a [2], the EC50 was 2.7 nM and the activation at 1 µM turned out to be 100%.
For `CC(C)(N)C(=O)N[C@H](Cc1c[nH]c2ccccc12)c1nnc(CCCc2c[nH]c3ccccc23)n1Cc1ccccc1` [Compound 42, N-((R)-1-(5-(3-(1H-indol-3-yl)propyl)-4-benzyl-4H-1,2,4-triazol-3-yl)-2-(1H-indol-3-yl)ethyl)-2-amino-2-methylpropanamide] the same measures were 500 nM, 34 nM and 100%.
For `NC1(C(=O)N[C@H](Cc2c[nH]c3ccccc23)c2nnc(CCc3ccccc3)n2Cc2cccc3ccccc23)CCNCC1` [Compound 49, N-((R)-2-(1H-indol-3-yl)-1-(4-((naphthalen-1-yl)methyl)-5-phenethyl-4H-1,2,4-triazol-3-yl)ethyl)-4-aminopiperidine-4-carboxamide], in that order: 44.5 nM, 10.1 nM and 100%.
Molecule `O=C(N[C@H](Cc1c[nH]c2ccccc12)c1nnc(CCCc2c[nH]c3ccccc23)n1Cc1cccc2ccccc12)C1CCNCC1` [Compound 39, N-((R)-1-(5-(3-(1H-indol-3-yl)propyl)-4-((naphthalen-1-yl)methyl)-4H-1,2,4-triazol-3-yl)-2-(1H-indol-3-yl)ethyl)piperidine-4-carboxamide] came in with an IC50 at human GHS-R 1a [1] of 21.1 nM. For the same molecule, the EC50 on human GHS-R 1a [2] came out at 1 nM.
`COc1ccc(Cn2c(CCc3ccccc3)nnc2[C@@H](Cc2c[nH]c3ccccc23)NC(=O)C2(N)CCNCC2)cc1` [Compound 4, N-((R)-1-(4-(4-methoxybenzyl)-5-phenethyl-4H-1,2,4-triazol-3-yl)-2-(1H-indol-3-yl)ethyl)-4-aminopiperidine-4-carboxamide] showed an IC50 at human GHS-R 1a [1] of 6.6 nM. For the same molecule, at human GHS-R 1a [2], the half-maximal effective concentration (EC50) worked out at 4.1 nM and the activation at 1 µM is 90%.
For `COc1ccc(Cn2c(CCc3c[nH]c4ccccc34)nnc2[C@@H](Cc2c[nH]c3ccccc23)NC(=O)C2(N)CCNCC2)cc1` [Compound 47, N-((R)-1-(5-(2-(1H-indol-3-yl)ethyl)-4-(4-methoxybenzyl)-4H-1,2,4-triazol-3-yl)-2-(1H-indol-3-yl)ethyl)-4-aminopiperidine-4-carboxamide], in that order: 150 nM, 38 nM and 100%.
